Residues, ends and D or L forms follow the SMILES beside them. *: point of attachment. Cbz = O=C(OCc1ccccc1)*
| melting point [°C] | SMILES |
| --- | --- |
| 98 to 99 | O=C(Nc1ccccc1)OCCc1ccc2c(c1)C(=O)c1ccccc1CO2 |
| 114 to 116 | COc1ccc2c(c1)C(=O)C(Cc1cccc(NS(=O)(=O)C(F)(F)F)c1)CO2 (stereo not drawn) |
| 128 to 130 | COc1ccc2oc3ccccc3c(=O)c2c1 |
| 180 to 181 | Cn1cc(CS(C)=O)c(=O)c2ccc(Cl)cc21 (stereo not drawn) |
| 162 | CCCN(C)c1ccc(-c2c(Cl)c(=O)c2=O)cc1 |
| 210 to 212 | CC(C)c1ccc(S(=O)(=O)c2ccccc2)cc1S(=O)(=O)NC1CCN(C(=O)c2ccccc2F)CC1 |
| 204 to 206 | O=C(Nc1ccc(Cl)cc1)C(Oc1cccc2ccccc12)C1CC1 (stereo not drawn) |
| 174 to 175 | Cc1cc(OCC(=O)Nc2cc(C(=O)O)ccc2Cl)ccc1C(C)C |
| 156 | COC(=O)C=Cc1ccc(C(=O)O)s1 |
| 70 | CN(CCCNc1ncc(Cc2ccc(F)cc2)c(=O)[nH]1)c1ccccn1 |
| 133 to 134 | NS(=O)(=O)c1ccc(C2=C(c3cccc(F)c3F)CCC2)cc1 |
| 62 | COC(=O)C(C)c1ccc(C(=O)c2cccs2)cc1 (stereo not drawn) |
| 280 to 285 | O=S(=O)(O)c1ccc(Nc2ccnc3cc(Cl)ccc23)cc1Cl |
| 176 to 179 | CCCNC(=O)NNC(=O)c1ccc(OC)cc1 |
| 160 to 163 | O=c1oc(-c2ccc([N+](=O)[O-])cc2)nn1-c1ccc(C(F)(F)F)cc1 |
| 103 to 104 | CCC1(CSc2ccccc2C(=O)c2ccccc2)COC(=O)N1 (racemic) |

| melting point [°C] | SMILES |
| --- | --- |
| 146 | CCOC(=O)CNc1nc(-c2ccccc2)c2cc(Cl)ccc2n1 |
| 111 | OC(Cc1ccc(F)cc1)(Cn1cncn1)C1(Cl)CC1 (stereo not drawn) |
| 122 to 123 | CC(C)=CCOc1ccc(C(=O)C=Cc2ccc(C(F)(F)F)cc2)c(O)c1 |
| 160 to 163 | COC(=O)C1=C(N)OC(C)=C(C(C)=O)C1c1cccc([N+](=O)[O-])c1 (stereo not drawn) |
| 63 to 70 | COC(=O)c1ccc(OCCNC(=O)C2Cc3ccccc3N2S(=O)(=O)c2ccc(-c3cccc(C(F)(F)F)c3)cc2)cc1F (stereo not drawn) |
| 125 to 127 | COc1cc(Cl)ccc1-c1ccc(C(C)=O)cc1 |
| 82 to 84 | Clc1ccc(Cl)c(Oc2cccc(Cl)n2)c1 |
| 103 to 104 | COc1cccc2c1OC(CO)C2=O (stereo not drawn) |
| 116 to 119 | CCSc1noc(-c2ccc(NS(C)(=O)=O)c(Oc3ccc(F)cc3F)c2)n1 |
| 68 to 69 | CCCCCCOc1ccc(C(=O)NCC2CCCC2(C)C)cc1 (single isomer, unassigned; (+)) |
| 117 to 120 | COc1ccc2c(c1)C(=O)Cc1c(Cl)cccc1S2 |
| 137 to 138 | CCc1ccc(NC(=S)Nc2cc([N+](=O)[O-])ccc2O)cc1 |
| 124 to 126 | COC(=O)c1ccc(C(Cc2cc(C)ccc2N2CCCCC2)C(N)=O)cc1 (stereo not drawn) |
| 42 to 43 | COC(=O)C(O)Cc1ccc(O)cc1 (stereo not drawn) |
| 76 to 77 | C=CCNS(=O)(=O)c1ccc(I)cc1 |
| 135 to 137 | COC(=O)C1(C)CCc2cc(C(=O)c3ccccc3)c(OC)cc21 (stereo not drawn) |

The next lines start with the compound.

| SMILES | melting point [°C] |
| --- | --- |
| O=C1CN2C(=O)C(c3ccccc3)c3cc(Cl)cc(c32)N1 (stereo not drawn) | 156 to 159 |
| CN1CCCC1=NC(=O)Nc1c(Cl)cccc1Cl | 134 to 136 |
| CCOC(=O)c1cnc(N(Cc2cc(Br)ccc2OCc2ccccc2)C(=O)OC(C)(C)C)cn1 | 116 to 117 |
| CC(C)(C)C(=O)OCn1cnc2ccc(CBr)cc2c1=O | 104 to 114 |
| C=C(C)CSc1nc2c(cc1C#N)C(=O)CCC2 | 85 to 86 |
| COc1ccc(/C=C/c2nc3c(c(=O)n(C)c(=O)n3C)n2C)c(OC)c1OC | 187 to 188 |
| CC(C)(C)c1ccc(C(=O)Nc2cn3cc(-c4cnc[nH]4)ccc3n2)cc1 | 297 to 298 |
| Cc1n[nH]c(C)c1-c1nn(C(C)c2oc3ccccc3c(=O)c2-c2cccc(F)c2)c2ncnc(N)c12 (stereo not drawn) | 240 to 243 |
| CC(=O)c1ccc2c(c1)OCC(C(=O)O)O2 (stereo not drawn) | 159 to 162 |
| COc1ccc(C(=O)Nc2ccc3ccc(Oc4ccccc4Br)nc3n2)cc1 | 183 |
| COc1c(Cl)cc(OCC=C(Cl)Cl)cc1C=NO | 111 |
| C[C@]12CC/C(=C\F)C=C1CC[C@@H]1[C@@H]2CC[C@]2(C)C(=O)CC[C@@H]12 | 101 to 102 |
| COc1cc(N2CCN(C(=O)Cn3nc(C4=NCCN4)c4cccnc43)CC2)ccc1Cl | 133 to 135 |
| COc1cc(Nc2nccc(-c3ccc(NCC(C)(C)CN(C)C)nc3)n2)cc(OC)c1OC | 125 |
| CC(C)C1(C(=O)O)CCCCC1 | 102 |
| S=c1n(CNc2ccc(Br)cc2)nc(-c2ccncc2)n1-c1ccccc1 | 208 to 209 |
| CCOC(=O)c1cnc(O)c2c(C)n[nH]c12 | 310 |
| CCOC(=O)CNC(=O)c1nc2ccc(Cl)nn2n1 | 175 to 177 |
| c1ccc(C2CN3CCN=C3S2)cc1 (stereo not drawn) | 68 to 70 |
| CNc1ccc([N+](=O)[O-])c(C(=O)NCC2CCN(C(c3ccccc3)c3ccccc3)CC2)c1 | 185 |
| COc1cc(CCCC2OCCO2)ccc1OCc1nc(-c2ccccc2)oc1C | 74 to 75 |
| COC(=O)C1=C(C)NC(C)=C(C(=O)OCCN2CCC(C(c3ccccc3)c3ccccc3)CC2)C1c1cccc([N+](=O)[O-])c1 (stereo not drawn) | 82 to 85 |

| SMILES | melting point [°C] |
| --- | --- |
| CCOC(=O)c1cc2cc(Cl)c(F)cc2[nH]1 | 160 to 164 |
| C[C@@H]1C[C@H](C)CN(C(=O)[C@@H]2Cc3ccccc3N2c2nccs2)C1 | 172 to 174 |
| CC(C)(Br)C(=O)ON1C(=O)CCC1=O | 72 to 74 |
| COc1cccc([C@H]2O[C@H](CC(=O)Nc3ccc(CC(=O)O)cc3)C(=O)N(CC(C)(C)CO)c3ccc(Cl)cc32)c1OC | 142 to 144 |
| COc1nc(OC)nc(C2CC2)n1 | 68 to 70 |
| CC(C)(C)c1ccc(OCC(O)CN2CCC3(CC2)CSC2=C(O3)c3cc(Cl)ccc3C(=O)C2=O)cc1 (stereo not drawn) | 94 to 97 |
| CCOC(=O)c1c(OC)c([N+](=O)[O-])cn1C | 145 to 147 |
| OCc1cnoc1-c1ccc(F)cc1F | 60 to 61 |
| Oc1ccc(Nc2nc(NCc3ccco3)nc(Oc3ccc(O)cc3)n2)cc1 | 80 to 83 |
| Cc1ncccc1C#N | 55 |
| CC(C)(C)OC(=O)N1CCn2c(Br)c(-c3cccc(F)c3)c(C(=O)n3ccnc3)c2C1 | 168 to 169 |
| COc1cc(Nc2c(C#N)cnc3cc(-c4cnc(C=O)n4C)sc23)c(Cl)cc1Cl | 225 to 227 |
| COC(=O)C(Cc1ccc(O)cc1)NC(=O)C(CO)NC(=O)C(Cc1c[nH]c2ccccc12)NC(=O)C(CCC(N)=O)NC(=O)OCc1ccccc1 (stereo not drawn) (Cbz-QWSY-OMe; configuration not given here) | 238 to 241 |
| COc1ccc(CCc2ccncc2)c2c1OCC2C (stereo not drawn) | 89 to 93 |
| CC(C)c1nc(C(C)C)c(CCCCO)c(-c2ccc(F)cc2)c1CO | 135 to 137 |
| O=C1CCC(C(=O)O)C(=O)N1 (stereo not drawn) | 116 to 118 |
| Cc1cc(N2N=CCNC2=O)cc(Cl)c1C(=O)c1ccc(Cl)cc1 | 171 to 172 |
| COc1ccc(C(=O)Nc2c(Cl)cncc2Cl)c2c1OCC2CC(=O)NCc1ccc(Cl)cc1 (stereo not drawn) | 283 to 286 |
| COc1cccc([C@H]2O[C@H](CC(=O)O)C(=O)N(CC(C)(C)CO)c3ccc(Cl)cc32)c1OC | 199 to 202 |
| CCn1nc(C(=O)NC2CN(C)CCN(C(=O)c3ccccc3)C2)c2ccccc21 (stereo not drawn) | 100 to 103 |
| ClC(Cl)=CCOc1cc(Cl)c(OCCCCOc2ccc(Cl)cc2)c(Cl)c1 | 54.5 |
| CCOC(=O)c1c(SC)nn(-c2c(Cl)cc(Cl)cc2Cl)c1C | 95 to 98 |

| SMILES | melting point [°C] |
| --- | --- |
| CCCn1c(=O)c2c(nc(/C=C/c3ccc(OCC)c(OCC)c3)n2C)n(CCC)c1=O | 174 |
| CCOc1nn(-c2ccc(C(F)(F)F)cn2)cc1CCCOc1cc(OC)ccc1CCC(=O)O | 115 to 116 |
| Fc1cccc(F)c1Cn1nnc2c(Cl)nccc21 | 133 to 139 |
| CCCCCCCCCCCCNC(=O)c1cc(-c2cccc(C(F)(F)F)c2)c(OCCO)c(-c2cccc(C(F)(F)F)c2)c1 | 154 to 158 |
| CC(C)Cn1c(CN2C(=O)c3ccccc3C2=O)c(-c2ccccc2)c2cc(OCc3ccccc3)ccc2c1=O | 113 to 114 |
| COc1cccc2c1CC1CC(CCN3CCC(c4c[nH]c5ccccc45)CC3)CN(C)C1C2 (stereo not drawn) | 215 to 217 |
| Cc1cc(C)c(P(C(C)(C)C)C(C)(C)C)c(C)c1 | 36 to 37 |
| Cc1cc(O)ccc1-n1cc(C(=O)O)c(=O)cc1C1CCCCCCC1 | 118 to 120 |
| CCOC(=O)N1CCN(c2c(-c3ccccc3)sc3ccccc23)CC1 | 115 to 116 |
| COc1cc(OC)c(NC2=Nc3ccccc3CS2)cc1Cl | 157 to 158 |
| CC[C@H](COC)n1cc(Br)nc(N2CCc3cc(OC)cc(C)c32)c1=O | 116 to 118 |
| CC(C)(C)S(=O)(=O)N1C[C@H](O)C[C@@H]1c1cc(F)cc(C#N)c1 | 93 to 96 |
| Clc1ccc2c(c1)C(c1ccccc1)=NCc1nccn1-2 | 146 to 148 |
| N#CCc1cn(-c2ccccc2)nc1OCc1ccccc1 | 102 to 103 |
| COc1ccc(C(CC(=O)Nc2cc(C(N)=O)ccc2C(C)(C)C)CC(C)C)c(OC)c1 (stereo not drawn) | 194 to 196 |
| CCc1sc2nc(C(=O)OC)cn2c1C | 94 to 95 |
| O=C(Nc1ccccc1Sc1ccccc1-c1nnn[nH]1)c1ccc(OCCCCc2ccccc2)cc1 | 156 to 159 |
| CC(C)(C)c1cc(CC2=NC(=S)SC2)cc(C(C)(C)C)c1O | 138 to 140 |
| COC(=O)C1=C(C)NC(C)=C(c2nc(N(C)Cc3ccccc3)no2)C1c1cccc([N+](=O)[O-])c1 (stereo not drawn) | 182 to 184 |
| COc1ncnc(N2CCCC2)c1Cc1cccc(F)c1 | 74 to 76 |
| CCOc1cccc(-c2ccc3c(c2)C=C(C(=O)Nc2ccc(CN(C)C4CCOCC4)cc2)CCS3(=O)=O)c1 | 192 to 195 |
| CNC(=O)Nc1snc(N(C)C)c1C(N)=O | 221 |
